± gives the expanded uncertainty stated by the source.
Experiment: molar enthalpy of vaporization or sublimation
Details: 298.15 K; Crystal; Static calorimetry

| SMILES | molar enthalpy [kcal/mol] |
| --- | --- |
| COc1cccc(OC)c1O [1,3-dimethoxy-2-hydroxybenzene] | 23.5 ± 0.43 |
| COc1cc(O)cc(OC)c1 [3,5-dimethoxyphenol] | 24.2 ± 0.717 |
| COc1ccc(O)cc1 [4-methoxyphenol] | 22.6 ± 0.43 |

Same assay, conditions: 298.15 K; Liquid; Static calorimetry

| SMILES | molar enthalpy [kcal/mol] |
| --- | --- |
| COc1cccc(O)c1OC [2,3-dimethoxyphenol] | 18.3 ± 0.406 |
| COc1ccccc1O [2-methoxyphenol] | 15 ± 0.263 |
| COc1cccc(O)c1 [3-methoxyphenol] | 18.1 ± 0.43 |

From the NIST ThermoML archive (doi:10.1021/je025641j)
